According to PubChem BioAssay (NCI):
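Step 1: Grow cells in 96-well plates. Step 2: Expose to compound for 48 hours at 5 concentrations. Step 3: Interpolate endpoints linearly; if unreached, use highest concentration. GI50: concentration for 50% inhibition of growth. TGI is the concentration that stops growth completely.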

How the values were obtained:
Test in all cases: growth of human tumour cells (NCI), 48 h
[1] = tested on: A549 NSCLC
[2] = tested on: HCT-116 colon
[3] = tested on: HCT-15 colon
[4] = tested on: HT29 colon
[5] = tested on: IGROV1 ovarian
[6] = tested on: NCI-H522 lung
[7] = tested on: OVCAR-4 ovarian
[8] = tested on: UACC-257 melanoma

In the case of `CC(=O)O[C@H]1CC[C@@]2(C)C(=CC[C@@H]3C2CC[C@]2(C)Nc4nc5ccccc5cc4CC32)C1` (some centres not stated), the TGI [1] is reported as 12.9 µM, the TGI [2] is reported as 3.8 µM and the TGI [3] is reported as 8.01 µM. For the same molecule, the TGI [4] was 3.68 µM, the TGI [5] was 30 µM and the TGI [6] was 24.1 µM. It also gave a TGI [7] of 21.4 µM and a TGI [8] of 13 µM.
For `C=CCc1cc(OC)c2c(c1)C(OC)CC(c1ccc(OC)c(OC)c1)O2` (configuration not stated), the TGI [1] was over 100 µM, the TGI [2] was over 100 µM and the TGI [3] was over 100 µM. For the same molecule, the TGI [4] was over 100 µM, the TGI [5] was over 100 µM and the TGI [7] was over 100 µM. It also gave a TGI [8] of over 100 µM.
For `CCOc1ccc(NC(=O)CC2C(=O)Nc3ccccc3S2(=O)=O)cc1` (configuration not stated), the TGI [1] was over 100 µM, the TGI [2] was over 100 µM and the TGI [3] was over 100 µM. For the same molecule, the TGI [4] was over 100 µM, the TGI [5] was over 100 µM and the TGI [6] was over 100 µM. It also gave a TGI [7] of over 100 µM and a TGI [8] of over 100 µM.
For `Cn1nc(-c2ccccc2)c2c(/C=C/c3ccccc3)onc2c1=O`, the TGI [1] was over 100 µM, the TGI [2] was over 100 µM and the TGI [3] was over 100 µM. It also gave a TGI [4] of over 100 µM, a TGI [5] of over 100 µM and a TGI [6] of over 100 µM. For the same molecule, the TGI [8] was over 100 µM.
`CC1(c2ccc(Cl)cc2)C2C(=O)NC(=O)C1C(=O)NC2=O` (configuration not stated) showed a TGI [1] of over 100 µM, a TGI [3] of over 100 µM and a TGI [4] of over 100 µM. The TGI [5] was over 100 µM, the TGI [6] was over 100 µM and the TGI [7] was over 100 µM. For the same molecule, the TGI [8] was over 100 µM.
`Brc1ccc2ns[s+]c2c1` was tested, and the TGI [1] was over 100 µM, the TGI [2] was over 100 µM and the TGI [3] was over 100 µM. It also gave a TGI [4] of over 100 µM, a TGI [5] of over 100 µM and a TGI [6] of over 100 µM. It also gave a TGI [7] of over 100 µM and a TGI [8] of over 100 µM.
With `CC(=O)OC1COC(n2c(=S)n(-c3ccccc3)c(=O)c3ccccc32)C(OC(C)=O)C1OC(C)=O` (configuration not stated) the TGI [1] was over 100 µM, the TGI [2] was over 100 µM and the TGI [3] was over 100 µM. For the same molecule, the TGI [4] was over 100 µM, the TGI [5] was over 100 µM and the TGI [6] was over 100 µM. It also gave a TGI [7] of over 100 µM and a TGI [8] of over 100 µM.
`CCOC(=O)C1(C)CCCCC(=O)N1` (configuration not stated) was tested, and the TGI [1] was over 100 µM, the TGI [3] was over 100 µM and the TGI [4] was over 100 µM. For the same molecule, the TGI [5] was over 100 µM and the TGI [7] was over 100 µM.
`CC(=O)C1=C(O)C2C3c4c[nH]c5cccc(c45)CC3C(C)(C)N2C1=O` (configuration not stated) gave a TGI [1] of over 100 µM, a TGI [3] of over 100 µM and a TGI [4] of over 100 µM. It also gave a TGI [5] of over 100 µM, a TGI [6] of 63.4 µM and a TGI [7] of over 100 µM. For the same molecule, the TGI [8] was over 100 µM.
`O=C(Nc1nc2c(ncn2C2OC(CO)C(O)C2O)c(=O)[nH]1)c1ccccc1` (configuration not stated) gave a TGI [1] of over 100 µM, a TGI [2] of over 100 µM and a TGI [3] of over 100 µM. For the same molecule, the TGI [4] was over 100 µM, the TGI [5] was over 100 µM and the TGI [6] was over 100 µM. It also gave a TGI [7] of over 100 µM and a TGI [8] of over 100 µM.
Work on `CCCCCCC[CH2][Sn]1([CH2]CCCCCCC)[O]C(=O)c2cccnc2[O]1` yielded a GI50 [1] of over 100 µM, a TGI [1] of over 100 µM and a GI50 [2] of over 100 µM. The TGI [2] was over 100 µM, the GI50 [3] was over 100 µM and the TGI [3] was over 100 µM. For the same molecule, the GI50 [4] was over 100 µM, the TGI [4] was over 100 µM and the GI50 [5] was over 100 µM. It also gave a TGI [5] of over 100 µM, a GI50 [6] of over 100 µM and a TGI [6] of over 100 µM. It also gave a GI50 [7] of over 100 µM, a TGI [7] of over 100 µM and a GI50 [8] of over 100 µM. For the same molecule, the TGI [8] was over 100 µM.
`c1ccc2c(c1)cc1n2CC2CN=NC12` (configuration not stated) gave a TGI [1] of over 100 µM, a TGI [2] of over 100 µM and a TGI [3] of over 100 µM. It also gave a TGI [4] of over 100 µM, a TGI [5] of over 100 µM and a TGI [6] of over 100 µM. For the same molecule, the TGI [7] was over 100 µM and the TGI [8] was over 100 µM.
In the case of `CC(SC(=O)Nc1ccc(N=Nc2ccccc2)cc1)C(=O)O` (configuration not stated), the TGI [1] is reported as over 100 µM, the TGI [2] is reported as over 100 µM and the TGI [3] is reported as over 100 µM. It also gave a TGI [4] of over 100 µM, a TGI [5] of over 100 µM and a TGI [6] of over 100 µM. The TGI [7] was over 100 µM and the TGI [8] was over 100 µM.
With `COc1cc(CCc2ccc(N)cc2)cc(OC)c1OC` the TGI [1] was over 100 µM, the TGI [2] was over 100 µM and the TGI [3] was over 100 µM. For the same molecule, the TGI [4] was over 100 µM, the TGI [5] was over 100 µM and the TGI [6] was over 83.4 µM. It also gave a TGI [7] of over 100 µM and a TGI [8] of over 100 µM.
`COc1ccc(/C=C/C(=O)c2sc(-n3nc(-c4ccccc4)cc3-c3ccccc3)nc2C)cc1` gave a GI50 [1] of over 100 µM, a TGI [1] of over 100 µM and a GI50 [2] of over 100 µM. It also gave a TGI [2] of over 100 µM, a TGI [3] of over 100 µM and a TGI [4] of over 100 µM. For the same molecule, the GI50 [5] was over 100 µM, the TGI [5] was over 100 µM and the TGI [6] was over 100 µM. For the same molecule, the TGI [7] was over 100 µM and the TGI [8] was over 100 µM.
In the case of `Cc1ccc(S(=O)(=O)N/N=C(/c2nc3ccc([N+](=O)[O-])cc3[nH]c2=O)C(O)c2ccc(C(O)/C(=N\NS(=O)(=O)c3ccc(C)cc3)c3nc4ccc([N+](=O)[O-])cc4[nH]c3=O)cc2)cc1` (configuration not stated), the TGI [1] is reported as over 100 µM, the TGI [2] is reported as over 100 µM and the TGI [4] is reported as over 100 µM. For the same molecule, the TGI [5] was over 100 µM, the TGI [6] was 55.7 µM and the TGI [8] was over 100 µM.
For `CN(c1ccccc1)c1c(Cl)c(=O)oc2c1ccc1occc12`, the TGI [1] was over 100 µM, the TGI [2] was over 100 µM and the TGI [3] was over 100 µM. It also gave a TGI [4] of over 100 µM, a TGI [6] of over 100 µM and a TGI [7] of over 100 µM. It also gave a TGI [8] of over 100 µM.
With `CC(=O)NNc1nc(C)c(C(=O)NNC(=O)C(=O)Nc2ccc(Cl)cc2Cl)s1` the TGI [1] was over 100 µM, the TGI [2] was over 100 µM and the TGI [3] was over 100 µM. The TGI [4] was over 100 µM, the TGI [5] was over 100 µM and the TGI [6] was 52.8 µM. The TGI [7] was 56.8 µM and the TGI [8] was 83.4 µM.
`CC1=C(C(=O)Nc2cc(F)c(F)cc2F)C(c2ccc([N+](=O)[O-])cc2)C(C(=O)Nc2cc(F)c(F)cc2F)=C(C)N1` gave a TGI [1] of over 100 µM, a TGI [2] of over 100 µM and a TGI [4] of over 100 µM. It also gave a TGI [5] of over 100 µM, a TGI [6] of 55.6 µM and a TGI [7] of over 100 µM. It also gave a TGI [8] of over 100 µM.
